Series [1] concerns Plasmodium falciparum. Nature of the series: Displacement of [3H]farnesylpyrophosphate from Plasmodium falciparum protein farnesyltransferase at 0.5 nM by scintillation proximity assay.
The test system of series [2] is Plasmodium falciparum. Briefly: Antimalarial activity against chloroquine-sensitive Plasmodium falciparum 3D7 in human red cells. Format: functional. As to conditions: read-out: ED50 (the source's name).
The subject of series [3] is Plasmodium falciparum. Briefly: Displacement of [3H]farnesylpyrophosphate from Plasmodium falciparum protein farnesyltransferase at 50 nM by scintillation proximity assay. (Displacement assays read how much labelled ligand stays bound in the presence of the test substance.)
Series [4] deals with Plasmodium falciparum. Nature of the series: Antimalarial activity against chloroquine-resistant, pyrimethamine-resistant Plasmodium falciparum K1 in human red cells. Format: functional. As to conditions: read-out: ED50 (the source's name).
Series [5] concerns Plasmodium falciparum. Briefly: Displacement of [3H]farnesylpyrophosphate from Plasmodium falciparum protein farnesyltransferase at 5 nM by scintillation proximity assay.
The species named for series [6] is Rattus norvegicus. Briefly: Inhibition of rat protein farnesyltransferase at 5000 nM.
The nature of series [7]: (§1) Metabolic stability assessed as half life in mouse liver microsomes. In kind it is ADME, Microsome. Conditions: liver microsomes. On the technique in general: Liver microsomes are vesicles of endoplasmic reticulum, rich in cytochrome P450 enzymes.
The species entered for series [8] is Rattus norvegicus. Nature of the series: Inhibition of rat protein farnesyltransferase at 50 nM.
The species named for series [9] is Rattus norvegicus. Nature of the series: Inhibition of rat protein farnesyltransferase at 500 nM.
Series [10] is filed under the species Rattus norvegicus. Briefly: Inhibition of rat protein farnesyltransferase at 5 nM.
Another series relates to Liver. Described as §1. Format: ADME, Microsome. As to conditions: microsomes.
Series [11] can be described thus: Inhibition of Plasmodium falciparum PFT.
For series [12], the system named is Plasmodium falciparum. Nature of the series: Antimalarial activity against Plasmodium falciparum in human red cells. In kind it is functional. As to conditions: read-out: ED50 (the source's name).

Usually inhibition stands for the percentage by which the read-out fell short of the control. A high value points to a response far below the control. For orientation: half-life means how long it takes for the measured level to halve. Usually IC50 stands for the concentration that gives 50% inhibition. A higher IC50 goes with a need for much substance.

Turning to `Cn1cnc(S(=O)(=O)N(C(CC(=O)OC(C)(C)C)C(=O)OC(C)(C)C)C2Cc3cc(C#N)ccc3N(Cc3cncn3C)C2=O)c1` (configuration not stated), the inhibition in the series on Plasmodium falciparum [1], with Plasmodium falciparum [3] and in the series on Plasmodium falciparum [5] was 0% each time. Further, the EC50 with Plasmodium falciparum [2] and in the series with Plasmodium falciparum [4] was 5000 nM in each case.
With `Cn1cnc(S(=O)(=O)N(Cc2ccc(S(C)(=O)=O)cc2)C2Cc3cc(C#N)ccc3N(Cc3cncn3C)C2=O)c1` (configuration not stated), the inhibition in the series filed under Rattus norvegicus [6] amounted to 73%; with Plasmodium falciparum [1], 23%; in the series filed under Rattus norvegicus [8], 0%; with Plasmodium falciparum [3], 99%; in the series with Plasmodium falciparum [5], 91%; in the series filed under Rattus norvegicus [9] it was 23%. In the series listed under Rattus norvegicus [10], this compound displayed an inhibition of 0%. Also, the half-life in series [7] was determined as 133 min. In addition, the EC50 in the series with Plasmodium falciparum [2] came out at 80 nM.
Regarding `Cn1cnc(S(=O)(=O)N(CC(=O)NC(C)(C)C)C2Cc3cc(C#N)ccc3N(Cc3cncn3C)C2)c1` (configuration not stated), in series [7], the half-life was determined as 17 min.
`Cn1cnc(S(=O)(=O)N(Cc2ccc(-n3cccn3)cc2)C2Cc3cc(C#N)ccc3N(Cc3cncn3C)C2=O)c1` (configuration not stated): the inhibition worked out at 84% in the series listed under Rattus norvegicus [6]; 50% in the series with Plasmodium falciparum [1]; 4% in the series listed under Rattus norvegicus [8]; 100% in the series with Plasmodium falciparum [3]; 97% with Plasmodium falciparum [5]; 54% in the series filed under Rattus norvegicus [9]. For the same compound, the inhibition in the series filed under Rattus norvegicus [10] worked out at 0%. In addition, in [7], the half-life is 9 min. Besides, the EC50 in the series with Plasmodium falciparum [2] worked out at 80 nM; in the series on Plasmodium falciparum [4], 150 nM.
`Cn1cnc(S(=O)(=O)N(Cc2ccccn2)C2Cc3cc(C#N)ccc3N(Cc3cncn3C)C2=O)c1` (configuration not stated): the inhibition in the series with Plasmodium falciparum [1] was 0%; in the series on Plasmodium falciparum [3], 8%; with Plasmodium falciparum [5], 5%. The EC50 in the series with Plasmodium falciparum [2] is 5000 nM.
For the compound `Cn1cnc(S(=O)(=O)N(Cc2ccc(S(C)(=O)=O)cc2)C2Cc3cc(C#N)ccc3N(Cc3cncn3C)C2)c1` (configuration not stated), the t1/2 with Liver worked out at 16 min.
In the case of `Cn1cnc(S(=O)(=O)N(CC(=O)NC(C)(C)C)C2Cc3cc(C#N)ccc3N(Cc3cncn3C)C2=O)c1` (configuration not stated), the inhibition came out at 86% in the series filed under Rattus norvegicus [6]; 25% in the series on Plasmodium falciparum [1]; 0% in the series filed under Rattus norvegicus [8]; 98% in the series with Plasmodium falciparum [3]; 86% in the series on Plasmodium falciparum [5]; 62% in the series listed under Rattus norvegicus [9]. The inhibition in the series filed under Rattus norvegicus [10] was determined as 0%. In addition, in series [7], the half-life is 144 min. The EC50 stood at 200 nM in the series with Plasmodium falciparum [2] and 100 nM in the series with Plasmodium falciparum [4].
For the compound `Cc1ccccc1CN(C1Cc2cc(C#N)ccc2N(Cc2cncn2C)C1=O)S(=O)(=O)c1cn(C)cn1` (configuration not stated), the inhibition in the series on Plasmodium falciparum [1] amounted to 9%; in the series with Plasmodium falciparum [3], 45%; in the series with Plasmodium falciparum [5], 12%. For the same compound, the EC50 with Plasmodium falciparum [2] and in the series on Plasmodium falciparum [4] was 5000 nM in each case.
With `Cn1cncc1CN1C(=O)C(N(CC(=O)NC(C)(C)C)S(=O)(=O)c2cccc(F)c2)Cc2cc(C#N)ccc21` (configuration not stated), the inhibition in the series on Plasmodium falciparum [1] worked out at 0%; in the series with Plasmodium falciparum [3], 56%; in the series with Plasmodium falciparum [5], 19%. In addition, in [7], the half-life stood at 31 min. In the series with Plasmodium falciparum [2], the EC50 came to 3600 nM.
On to `Cn1cncc1CN1C(=O)C(N(Cc2ccc(S(C)(=O)=O)cc2)S(=O)(=O)c2ccccn2)Cc2cc(C#N)ccc21` (configuration not stated), for which the inhibition amounted to 15% in the series on Plasmodium falciparum [1], 91% with Plasmodium falciparum [3] and 60% in the series on Plasmodium falciparum [5]. Moreover, the results for the EC50 in the series with Plasmodium falciparum [2] and with Plasmodium falciparum [4] were 1700 nM and 275 nM, respectively.
In the case of `Cn1cncc1CN1C(=O)C(NS(=O)(=O)c2ccccn2)Cc2cc(Br)ccc21` (configuration not stated), the inhibition came to 0% in the series on Plasmodium falciparum [1], 36% in the series on Plasmodium falciparum [3] and 15% in the series with Plasmodium falciparum [5]. For the same compound, the EC50 in the series with Plasmodium falciparum [2] and in the series with Plasmodium falciparum [4] was 5000 nM each time.
`Cc1c(S(=O)(=O)N(CC(=O)NC(C)(C)C)C2Cc3cc(C#N)ccc3N(Cc3cncn3C)C2=O)ncn1C` (configuration not stated): the inhibition is 6% in the series on Plasmodium falciparum [1], 24% in the series with Plasmodium falciparum [3] and 11% in the series on Plasmodium falciparum [5]. Also, the EC50 in the series on Plasmodium falciparum [2] and with Plasmodium falciparum [4] was 5000 nM throughout.
As to `Cn1cnc(S(=O)(=O)NC2Cc3cc(C#N)ccc3N(Cc3cncn3C)C2=O)c1` (configuration not stated), the inhibition with Plasmodium falciparum [1] is 0%; in the series on Plasmodium falciparum [3], 79%; with Plasmodium falciparum [5], 41%.
Consider `Cn1cnc(S(=O)(=O)N(CC(=O)c2ccsc2)C2Cc3cc(C#N)ccc3N(Cc3cncn3C)C2=O)c1` (configuration not stated), for which the inhibition with Plasmodium falciparum [1] amounted to 26%; in the series on Plasmodium falciparum [3] it was 98%; with Plasmodium falciparum [5], 79%.
`C=C(C)CN(C1Cc2cc(C#N)ccc2N(Cc2cncn2C)C1=O)S(=O)(=O)c1cn(C)cn1` (configuration not stated): the inhibition in the series on Plasmodium falciparum [1] was 4%; in the series on Plasmodium falciparum [3], 86%; with Plasmodium falciparum [5], 41%. Moreover, the values for the EC50 with Plasmodium falciparum [2] and in the series with Plasmodium falciparum [4] were 3200 nM and 2000 nM, respectively.
For `Cn1cnc(S(=O)(=O)N(CC(=O)OC(C)(C)C)C2Cc3cc(C#N)ccc3N(Cc3cncn3C)C2=O)c1` (configuration not stated), the inhibition worked out at 92% in the series listed under Rattus norvegicus [6]; 62% in the series on Plasmodium falciparum [1]; 23% in the series filed under Rattus norvegicus [8]; 100% with Plasmodium falciparum [3]; 97% with Plasmodium falciparum [5]; 75% in the series listed under Rattus norvegicus [9]. Further, the inhibition in the series filed under Rattus norvegicus [10] came out at 0%. Besides, the half-life in series [7] was 21 min. For the same compound, the EC50 is 35 nM with Plasmodium falciparum [2] and 30 nM in the series with Plasmodium falciparum [4].
Take `Cn1cnc(S(=O)(=O)N(Cc2ccc(S(C)(=O)=O)cc2)C2Cc3cc(Br)ccc3N(Cc3cncn3C)C2=O)c1` (configuration not stated): the inhibition worked out at 56% in the series filed under Rattus norvegicus [6]; 0% with Plasmodium falciparum [1]; 0% in the series listed under Rattus norvegicus [8]; 86% with Plasmodium falciparum [3]; 26% in the series with Plasmodium falciparum [5]; 0% in the series filed under Rattus norvegicus [9]. This compound showed an inhibition in the series filed under Rattus norvegicus [10] of 0%. The EC50 with Plasmodium falciparum [2] stood at 850 nM.
For `Cn1cnc(S(=O)(=O)N(Cc2ccccc2F)C2Cc3cc(C#N)ccc3N(Cc3cncn3C)C2=O)c1` (configuration not stated), the inhibition with Plasmodium falciparum [1] is 33%; with Plasmodium falciparum [3], 97%; in the series with Plasmodium falciparum [5] it was 71%. Besides, the EC50 with Plasmodium falciparum [2] turned out to be 800 nM.
In the case of `COC(=O)N1CCC(CN(C2Cc3cc(C#N)ccc3N(Cc3cncn3C)C2)S(=O)(=O)c2ccccn2)CC1` (configuration not stated), the IC50 in [11] is 0.5 nM. In the series with Plasmodium falciparum [12], the EC50 was 15 nM.
Regarding `Cn1cnc(S(=O)(=O)N(Cc2ccc(C#N)cc2)C2Cc3cc(C#N)ccc3N(Cc3cncn3C)C2)c1` (configuration not stated), in [7], the half-life is 3 min.
Consider `Cn1cnc(S(=O)(=O)N(CC(=O)NC(C)(C)C)C2Cc3cc(Br)ccc3N(Cc3cncn3C)C2=O)c1` (configuration not stated), for which the figures for the inhibition with Plasmodium falciparum [1], in the series with Plasmodium falciparum [3] and in the series with Plasmodium falciparum [5] were 24%, 98% and 81%, respectively. Also, in the series with Plasmodium falciparum [2], the EC50 stood at 105 nM.
As for `Cn1cnc(S(=O)(=O)N(Cc2ccc(C#N)cc2)C2Cc3cc(C#N)ccc3N(Cc3cncn3C)C2=O)c1` (configuration not stated), the inhibition in the series on Plasmodium falciparum [1] was found to be 26%; in the series with Plasmodium falciparum [3] it was 91%; in the series with Plasmodium falciparum [5] it was 56%. In addition, the half-life in [7] is 40 min. Moreover, the EC50 in the series on Plasmodium falciparum [2] and with Plasmodium falciparum [4] was 2100 nM each time.
Take `COC(=O)C1CCC(CN(C2Cc3cc(C#N)ccc3N(Cc3cncn3C)C2=O)S(=O)(=O)c2cn(C)cn2)CC1` (configuration not stated): the inhibition in the series with Plasmodium falciparum [1] came out at 21%; with Plasmodium falciparum [3], 98%; with Plasmodium falciparum [5], 83%. Moreover, in the series with Plasmodium falciparum [2], the EC50 amounted to 105 nM.
Regarding `Cn1cnc(S(=O)(=O)NC2Cc3cc(Br)ccc3N(Cc3cncn3C)C2=O)c1` (configuration not stated), the inhibition with Plasmodium falciparum [1] is 5%; in the series with Plasmodium falciparum [3] it was 60%; with Plasmodium falciparum [5] it was 15%. For the same compound, the EC50 came to 5000 nM with Plasmodium falciparum [2] and 3000 nM in the series on Plasmodium falciparum [4].
For the compound `Cn1cnc(S(=O)(=O)N(CC(=O)OC(C)(C)C)C2Cc3cc(C#N)ccc3N(Cc3cncn3C)C2)c1` (configuration not stated), the half-life in series [7] is 10 min.
With `Cn1cnc(S(=O)(=O)N(Cc2ccc(C(F)(F)F)o2)C2Cc3cc(C#N)ccc3N(Cc3cncn3C)C2=O)c1` (configuration not stated), the inhibition in the series with Plasmodium falciparum [1] was 1%; in the series on Plasmodium falciparum [3], 92%; in the series with Plasmodium falciparum [5], 67%. In addition, the EC50 in the series with Plasmodium falciparum [2] was found to be 625 nM; with Plasmodium falciparum [4], 325 nM.
For the compound `Cn1cncc1CN1C(=O)C(N(CC(=O)NC(C)(C)C)S(=O)(=O)c2ccc3c(c2)OCCCO3)Cc2cc(C#N)ccc21` (configuration not stated), the inhibition in the series on Plasmodium falciparum [1] came out at 0%; with Plasmodium falciparum [3], 22%; in the series on Plasmodium falciparum [5], 4%. Besides, the EC50 with Plasmodium falciparum [2] came out at 5000 nM.
As to `Cn1cnc(S(=O)(=O)N(Cc2ccc(F)cc2F)C2Cc3cc(C#N)ccc3N(Cc3cncn3C)C2=O)c1` (configuration not stated), the results for the inhibition in the series with Plasmodium falciparum [1], with Plasmodium falciparum [3] and with Plasmodium falciparum [5] were 4%, 80% and 27%, respectively.
`Cn1cnc(S(=O)(=O)N(Cc2ccccc2)C2Cc3cc(C#N)ccc3N(Cc3cncn3C)C2=O)c1` (configuration not stated): the inhibition in the series listed under Rattus norvegicus [6] is 61%; with Plasmodium falciparum [1], 45%; in the series filed under Rattus norvegicus [8], 0%; in the series with Plasmodium falciparum [3] it was 98%; in the series with Plasmodium falciparum [5], 88%; in the series filed under Rattus norvegicus [9], 5%. Also, in the series listed under Rattus norvegicus [10], the inhibition turned out to be 0%. Moreover, the values for the EC50 with Plasmodium falciparum [2] and in the series with Plasmodium falciparum [4] were 175 nM and 100 nM, respectively.
